{"source": "patent US20120053235A1", "about": "“Dihydromyricetin as an IKK-beta inhibitor used for treatment of arthritis, cancer and autoimmune conditions, and other diseases or disorders” (HONG KONG BAPTIST UNIVERSITY, priority 2010, published 2012)", "key": {"ICR mice": {"test_system": "ICR mice", "conditions": "mouse, in vivo", "protocol": "ICR (Imprinting Control Region) mice (both male and female) were purchased from the Laboratory Animal Services Center, the Chinese University of Hong Kong, Hong Kong. At the beginning of the study, one mouse was given orally with DMY at a dose of 2,000 mg/kg of mouse after fasting for 12 hours. The mouse had free access to water and after 2 hours, it was supplied with chow diet. Signs of toxicosis, onset of signs, and time to death of the mouse were monitored and recorded. Results of the initial exposure were used to select the subsequent dose of DMY, using the up-and-down method to estimate the lethal dose. […] If all the mice stayed alive, a higher dose of DMY was given to another three mice. All the mice were monitored continuously for two hours, every half hour for the next 5 hours, and at least every 10 hours until the 72nd hour of the study. Mice that died were immediately undergone autopsy. Mice remaining alive for 14 days upon study were sacrificed with an overdose pentobarbital."}, "[1]": {"test_system": "c-Fos nuclear translocation in human T lymphocytes", "test": "c-Fos nuclear translocation assay (Western blot)", "format": "cell-based", "conditions": "pretreated 1 hour, PMA plus ionomycin 120 minutes", "protocol": "For c-Jun and c-Fos nuclear translocation assays, the human T lymphocytes (6×10^6/well) were pretreated with DMY for 1 hour, and then stimulated with 20 ng/ml PMA plus […] ionomycin for 120 minutes. After the cells were harvested and washed with PBS twice, the nuclear proteins of cells were then prepared using NucBuster™ Reagents. Afterwards, the washed cells were re-suspended using 60 μl NucBuster™ Reagent 1 per 30 μl of packed cells and processed twice by vortexing for 15 seconds, and followed by the incubation on ice for 5 minutes and second vortexing for 15 seconds, and finally centrifuged at 16000 g for 5 minutes. The supernatants containing cytoplasmic proteins were discarded; the cell pellets were re-suspended in 45 μl of NucBuster Extraction Reagent 2. The same vortexing, icing, and repeated vortexing steps were repeated once to prepare the nuclear proteins of the cells.\nProtein concentrations were determined by using Bio-Rad Protein assay. Equal amounts of nuclear proteins or whole-cell lysates were analyzed by 10% SDS-PAGE. After electrophoresis, the proteins were electro-transferred to the nitrocellulose membranes. […]"}, "[2]": {"target": "T1, His-tagged recombinant human IKK-β (Homo sapiens, UniProt O14920)", "T1 construct": "His; purchased Calbiochem", "T1 sequence (O14920 1-756)": "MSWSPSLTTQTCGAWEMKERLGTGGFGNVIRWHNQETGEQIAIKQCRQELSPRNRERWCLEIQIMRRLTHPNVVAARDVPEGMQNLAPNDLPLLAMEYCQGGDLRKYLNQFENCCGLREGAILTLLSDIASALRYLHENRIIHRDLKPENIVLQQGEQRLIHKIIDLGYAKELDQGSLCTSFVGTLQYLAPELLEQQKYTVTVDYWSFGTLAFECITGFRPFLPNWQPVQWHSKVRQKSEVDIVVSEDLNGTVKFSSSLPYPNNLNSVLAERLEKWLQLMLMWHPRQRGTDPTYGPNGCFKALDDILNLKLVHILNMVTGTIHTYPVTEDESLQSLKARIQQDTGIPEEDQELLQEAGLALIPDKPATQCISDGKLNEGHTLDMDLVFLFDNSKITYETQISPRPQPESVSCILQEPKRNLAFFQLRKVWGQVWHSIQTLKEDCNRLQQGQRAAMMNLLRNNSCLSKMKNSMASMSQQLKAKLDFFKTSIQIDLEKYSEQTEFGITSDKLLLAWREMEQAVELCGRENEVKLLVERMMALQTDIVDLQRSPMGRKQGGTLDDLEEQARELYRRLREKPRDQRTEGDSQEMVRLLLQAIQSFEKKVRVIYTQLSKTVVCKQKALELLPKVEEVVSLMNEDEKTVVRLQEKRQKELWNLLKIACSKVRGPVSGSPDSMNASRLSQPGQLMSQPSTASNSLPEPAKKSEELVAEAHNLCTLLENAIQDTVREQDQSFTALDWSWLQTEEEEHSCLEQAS", "test": "IKK activity assay (K-LISA IKK-β-Inhibitor Screening Kit)", "format": "biochemical", "conditions": "DMY at 50 μM and 100 μM; FIG. 4A", "protocol": "The direct inhibitory effect of DMY on IKK activity was examined by using K-LISA™ IKK-β-Inhibitor Screening Kit (Calbiochem). Both the glutathione-S-transferase (GST)-IκB-α substrate and His-tagged recombinant human IKK-β were incubated with or without DMY in the wells of a glutathione-coated 96-well plate. The reaction was terminated with the addition of kinase stop solution after being incubated at 30° C. for 30 minutes. Then, anti-Phospho IκB-α (Ser32/Ser36) antibody was used to determine the phosphorylated GST-IκB-α substrate, and the horse radish peroxidase (HRP)-conjugated color was developed by 3,3′,5,5′-tetramethylbenzidine (TMB) substrate. ELISA stop solution was used to stop the color development and the absorbance was measured at 450 nm the wavelength at which was directly related to the level of IKK activity."}, "[3]": {"test_system": "NF-κB-Luciferase reporter in Jurkat T cells", "test": "NF-κB reporter assay (luciferase)", "format": "cell-based", "conditions": "20 ng/ml PMA plus 1 μM ionomycin, 6 hours; FIG. 6B", "protocol": "The Jurkat T cells are transiently transfected with NF-κB-Luciferase reporter plasmid with lipofectamine LTX (Invitrogen). The transfected cells were treated with 20 ng/ml PMA plus 1 μM ionomycin in the presence or absence of biotin-DMY for 6 hours. The cells were then lysed in Passive Lysis Buffer (Promega) and the transcriptional activity was determined by measuring the activity of firefly luciferase in a microplate luminometer (Perkin Elmer) using Luciferase Reporter Assay (Promega)."}}}
{"smiles": "O=C1c2c(O)cc(O)cc2O[C@H](c2cc(O)c(O)c(O)c2)[C@H]1O", "note": "[DMY, dihydromyricetin]", "values": [{"measurement": "acute oral LD50", "setting": "ICR mice", "result": "greater than 5,000 mg/kg body weight"}, {"measurement": "nuclear translocation of c-Fos", "setting": "[1]", "result": "suppress nuclear translocation"}, {"measurement": "activity of IKK-β", "setting": "[2]", "result": "significantly inhibited the activity of IKK-β"}, {"measurement": "NF-κB transcriptional activity", "setting": "[3]", "result": "significantly suppressed"}]}
